Measured values: ChEMBL document CHEMBL1126045, “Alanine series of ovine corticotropin releasing factor (oCRF): a structure-activity relationship study” (J Med Chem, 1992)

Biological target: Corticotropin releasing factor receptor (Rattus norvegicus) (UniProt P47866+P35353)
Assay: In vitro ability (peptide) to stimulate ACTH release by rat anterior pituitary cells relative to Ovine corticotropin releasing factor (oCRF).
Assay type: cell-based
Design: unit not given here
Details: Pituitary gland cell

Sequence of Corticotropin releasing factor receptor (Rattus norvegicus) (P35353 whole entry, looked up): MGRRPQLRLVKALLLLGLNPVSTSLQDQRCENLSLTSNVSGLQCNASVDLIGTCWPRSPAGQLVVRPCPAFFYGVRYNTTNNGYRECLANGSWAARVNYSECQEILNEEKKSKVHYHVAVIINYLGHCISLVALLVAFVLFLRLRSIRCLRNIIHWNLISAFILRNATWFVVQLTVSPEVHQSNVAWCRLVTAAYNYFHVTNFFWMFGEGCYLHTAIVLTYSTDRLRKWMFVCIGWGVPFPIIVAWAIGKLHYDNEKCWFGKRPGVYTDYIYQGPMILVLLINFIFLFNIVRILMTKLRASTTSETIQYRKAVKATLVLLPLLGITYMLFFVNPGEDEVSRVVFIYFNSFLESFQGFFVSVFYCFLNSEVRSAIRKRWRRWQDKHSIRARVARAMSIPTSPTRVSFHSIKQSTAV
Sequence of Corticotropin releasing factor receptor (Rattus norvegicus) (P47866 whole entry, looked up): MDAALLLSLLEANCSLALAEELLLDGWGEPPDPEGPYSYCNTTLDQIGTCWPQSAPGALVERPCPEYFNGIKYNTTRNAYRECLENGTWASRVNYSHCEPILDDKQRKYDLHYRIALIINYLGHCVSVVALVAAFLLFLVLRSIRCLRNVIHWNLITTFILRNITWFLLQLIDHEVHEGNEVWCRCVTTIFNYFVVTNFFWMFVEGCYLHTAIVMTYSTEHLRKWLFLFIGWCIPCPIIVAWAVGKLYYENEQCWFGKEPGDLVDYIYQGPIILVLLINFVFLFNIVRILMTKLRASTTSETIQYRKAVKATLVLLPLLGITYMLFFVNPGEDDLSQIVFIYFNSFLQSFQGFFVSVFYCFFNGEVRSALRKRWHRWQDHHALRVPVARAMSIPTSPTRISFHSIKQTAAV

| Compound | Relative potency |
| --- | --- |
| CC[C@H](C)[C@H](NC(=O)[C@H](C)NC(=O)[C@@H]1CCCN1C(=O)[C@H](CCC(=O)O)NC(=O)[C@H](CCC(N)=O)NC(=O)[C@@H](N)CO)C(=O)N[C@@H](CO)C(=O)N[C@@H](CC(C)C)C(=O)N[C@@H](CC(=O)O)C(=O)N[C@@H](CC(C)C)C(=O)N[C@H](C(=O)N[C@@H](Cc1ccccc1)C(=O)N[C@@H](Cc1c[nH]cn1)C(=O)N[C@@H](CC(C)C)C(=O)N[C@@H](CC(C)C)C(=O)N[C@@H](CCCN=C(N)N)C(=O)N[C@@H](CCC(=O)O)C(=O)N[C@H](C(=O)N[C@@H](CC(C)C)C(=O)N[C@@H](CCC(=O)O)C(=O)N[C@@H](CCSC)C(=O)N[C@H](C(=O)N[C@@H](CCCCN)C(=O)N[C@@H](C)C(=O)N[C@@H](CC(=O)O)C(=O)N[C@@H](CCC(N)=O)C(=O)N[C@@H](CC(C)C)C(=O)N[C@@H](C)C(=O)N[C@@H](CCC(N)=O)C(=O)N[C@@H](CCC(N)=O)C(=O)N[C@@H](C)C(=O)N[C@@H](Cc1c[nH]cn1)C(=O)N[C@@H](CO)C(=O)N[C@@H](CC(N)=O)C(=O)N[C@@H](CCCN=C(N)N)C(=O)N[C@@H](CCCCN)C(=O)N[C@@H](CC(C)C)C(=O)N[C@@H](CC(C)C)C(=O)N[C@@H](CC(=O)O)C(=O)N[C@H](C(=O)N[C@@H](C)C(N)=O)[C@@H](C)CC)[C@@H](C)O)C(C)C)[C@@H](C)O | 0.6 |
| CC[C@H](C)[C@H](NC(=O)[C@H](CC(=O)O)NC(=O)[C@H](CC(C)C)NC(=O)[C@H](CC(C)C)NC(=O)[C@H](CCCCN)NC(=O)[C@H](CCCN=C(N)N)NC(=O)[C@H](CC(N)=O)NC(=O)[C@H](CO)NC(=O)[C@H](Cc1c[nH]cn1)NC(=O)[C@H](C)NC(=O)[C@H](CCC(N)=O)NC(=O)[C@H](CCC(N)=O)NC(=O)[C@H](C)NC(=O)[C@H](CC(C)C)NC(=O)[C@H](CCC(N)=O)NC(=O)[C@H](CC(=O)O)NC(=O)[C@H](C)NC(=O)[C@H](CCCCN)NC(=O)[C@@H](NC(=O)[C@H](CCSC)NC(=O)[C@H](CCC(=O)O)NC(=O)[C@H](CC(C)C)NC(=O)[C@@H](NC(=O)[C@H](CCC(=O)O)NC(=O)[C@H](CCCN=C(N)N)NC(=O)[C@H](CC(C)C)NC(=O)[C@H](CC(C)C)NC(=O)[C@H](Cc1c[nH]cn1)NC(=O)[C@H](Cc1ccccc1)NC(=O)[C@@H](NC(=O)[C@H](C)NC(=O)[C@H](CC(=O)O)NC(=O)[C@H](CC(C)C)NC(=O)[C@H](CO)NC(=O)[C@@H](NC(=O)[C@@H]1CCCN1C(=O)[C@@H]1CCCN1C(=O)[C@H](CCC(=O)O)NC(=O)[C@H](CCC(N)=O)NC(=O)[C@@H](N)CO)[C@@H](C)CC)[C@@H](C)O)C(C)C)[C@@H](C)O)C(=O)N[C@@H](C)C(N)=O | 0.006 |
| CC[C@H](C)[C@H](NC(=O)[C@H](CC(=O)O)NC(=O)[C@H](CC(C)C)NC(=O)[C@H](CC(C)C)NC(=O)[C@H](CCCCN)NC(=O)[C@H](CCCN=C(N)N)NC(=O)[C@H](CC(N)=O)NC(=O)[C@H](CO)NC(=O)[C@H](Cc1c[nH]cn1)NC(=O)[C@H](C)NC(=O)[C@H](CCC(N)=O)NC(=O)[C@H](CCC(N)=O)NC(=O)[C@H](C)NC(=O)[C@H](CC(C)C)NC(=O)[C@H](CCC(N)=O)NC(=O)[C@H](CC(=O)O)NC(=O)[C@H](C)NC(=O)[C@H](CCCCN)NC(=O)[C@@H](NC(=O)[C@H](CCSC)NC(=O)[C@H](CCC(=O)O)NC(=O)[C@H](CC(C)C)NC(=O)[C@@H](NC(=O)[C@H](CCC(=O)O)NC(=O)[C@H](CCCN=C(N)N)NC(=O)[C@H](CC(C)C)NC(=O)[C@H](CC(C)C)NC(=O)[C@H](Cc1c[nH]cn1)NC(=O)[C@H](Cc1ccccc1)NC(=O)[C@@H](NC(=O)[C@H](CC(C)C)NC(=O)[C@H](C)NC(=O)[C@H](CC(C)C)NC(=O)[C@H](CO)NC(=O)[C@@H](NC(=O)[C@@H]1CCCN1C(=O)[C@@H]1CCCN1C(=O)[C@H](CCC(=O)O)NC(=O)[C@H](CCC(N)=O)NC(=O)[C@@H](N)CO)[C@@H](C)CC)[C@@H](C)O)C(C)C)[C@@H](C)O)C(=O)N[C@@H](C)C(N)=O | 0.004 |
| CC[C@H](C)[C@H](NC(=O)[C@H](CC(=O)O)NC(=O)[C@H](CC(C)C)NC(=O)[C@H](CC(C)C)NC(=O)[C@H](CCCCN)NC(=O)[C@H](CCCN=C(N)N)NC(=O)[C@H](CC(N)=O)NC(=O)[C@H](CO)NC(=O)[C@H](Cc1c[nH]cn1)NC(=O)[C@H](C)NC(=O)[C@H](CCC(N)=O)NC(=O)[C@H](CCC(N)=O)NC(=O)[C@H](C)NC(=O)[C@H](CC(C)C)NC(=O)[C@H](CCC(N)=O)NC(=O)[C@H](CC(=O)O)NC(=O)[C@H](C)NC(=O)[C@H](CCCCN)NC(=O)[C@@H](NC(=O)[C@H](CCSC)NC(=O)[C@H](CCC(=O)O)NC(=O)[C@H](CC(C)C)NC(=O)[C@@H](NC(=O)[C@H](CCC(=O)O)NC(=O)[C@H](CCCN=C(N)N)NC(=O)[C@H](CC(C)C)NC(=O)[C@H](CC(C)C)NC(=O)[C@H](Cc1c[nH]cn1)NC(=O)[C@H](Cc1ccccc1)NC(=O)[C@@H](NC(=O)[C@H](CC(C)C)NC(=O)[C@H](CC(=O)O)NC(=O)[C@H](CC(C)C)NC(=O)[C@H](CO)NC(=O)[C@H](C)NC(=O)[C@@H]1CCCN1C(=O)[C@@H]1CCCN1C(=O)[C@H](CCC(=O)O)NC(=O)[C@H](CCC(N)=O)NC(=O)[C@@H](N)CO)[C@@H](C)O)C(C)C)[C@@H](C)O)C(=O)N[C@@H](C)C(N)=O | 0.004 |
| CC[C@H](C)[C@H](NC(=O)[C@H](CC(=O)O)NC(=O)[C@H](CC(C)C)NC(=O)[C@H](CC(C)C)NC(=O)[C@H](CCCCN)NC(=O)[C@H](CCCN=C(N)N)NC(=O)[C@H](CC(N)=O)NC(=O)[C@H](CO)NC(=O)[C@H](Cc1c[nH]cn1)NC(=O)[C@H](C)NC(=O)[C@H](CCC(N)=O)NC(=O)[C@H](CCC(N)=O)NC(=O)[C@H](C)NC(=O)[C@H](CC(C)C)NC(=O)[C@H](CCC(N)=O)NC(=O)[C@H](CC(=O)O)NC(=O)[C@H](C)NC(=O)[C@H](CCCCN)NC(=O)[C@@H](NC(=O)[C@H](CCSC)NC(=O)[C@H](CCC(=O)O)NC(=O)[C@H](CC(C)C)NC(=O)[C@@H](NC(=O)[C@H](CCC(=O)O)NC(=O)[C@H](CCCN=C(N)N)NC(=O)[C@H](CC(C)C)NC(=O)[C@H](CC(C)C)NC(=O)[C@H](Cc1c[nH]cn1)NC(=O)[C@H](Cc1ccccc1)NC(=O)[C@H](C)NC(=O)[C@H](CC(C)C)NC(=O)[C@H](CC(=O)O)NC(=O)[C@H](CC(C)C)NC(=O)[C@H](CO)NC(=O)[C@@H](NC(=O)[C@@H]1CCCN1C(=O)[C@@H]1CCCN1C(=O)[C@H](CCC(=O)O)NC(=O)[C@H](CCC(N)=O)NC(=O)[C@@H](N)CO)[C@@H](C)CC)C(C)C)[C@@H](C)O)C(=O)N[C@@H](C)C(N)=O | 0.4 |
| CC[C@H](C)[C@H](NC(=O)[C@H](CC(=O)O)NC(=O)[C@H](CC(C)C)NC(=O)[C@H](CC(C)C)NC(=O)[C@H](CCCCN)NC(=O)[C@H](CCCNC(=N)N)NC(=O)[C@H](CC(N)=O)NC(=O)[C@H](CO)NC(=O)[C@H](Cc1cnc[nH]1)NC(=O)[C@H](C)NC(=O)[C@H](CCC(N)=O)NC(=O)[C@H](CCC(N)=O)NC(=O)[C@H](C)NC(=O)[C@H](CC(C)C)NC(=O)[C@H](CCC(N)=O)NC(=O)[C@H](CC(=O)O)NC(=O)[C@H](C)NC(=O)[C@H](CCCCN)NC(=O)[C@@H](NC(=O)[C@H](CCSC)NC(=O)[C@H](CCC(=O)O)NC(=O)[C@H](CC(C)C)NC(=O)[C@@H](NC(=O)[C@H](CCC(=O)O)NC(=O)[C@H](CCCNC(=N)N)NC(=O)[C@H](CC(C)C)NC(=O)[C@H](CC(C)C)NC(=O)[C@H](Cc1cnc[nH]1)NC(=O)[C@H](Cc1ccccc1)NC(=O)[C@@H](NC(=O)[C@H](CC(C)C)NC(=O)[C@H](CC(=O)O)NC(=O)[C@H](CC(C)C)NC(=O)[C@H](CO)NC(=O)[C@@H](NC(=O)[C@@H]1CCCN1C(=O)[C@@H]1CCCN1C(=O)[C@H](CCC(=O)O)NC(=O)[C@H](CCC(N)=O)NC(=O)[C@@H](N)CO)[C@@H](C)CC)[C@@H](C)O)C(C)C)[C@@H](C)O)C(=O)N[C@@H](C)C(N)=O | 1 |
| H-SQEPPISLDLTAHLLREVLEMTKADQLAQQAHSNRKLLDIA-NH2 | 0.006 |
| H-SQEPPISLDLTFALLREVLEMTKADQLAQQAHSNRKLLDIA-NH2 | 0.14 |
| H-SQEPPISLDLTFHLAREVLEMTKADQLAQQAHSNRKLLDIA-NH2 | 0.09 |
| H-SQEPPISLDLTFHLLAEVLEMTKADQLAQQAHSNRKLLDIA-NH2 | 0.02 |
| H-SQEPPISLDLTFHLLRAVLEMTKADQLAQQAHSNRKLLDIA-NH2 | 0.6 |
| H-SQEPPISLDLTFHLLREALEMTKADQLAQQAHSNRKLLDIA-NH2 | 0.5 |
| H-SQEPPISLDLTFHLLREVAEMTKADQLAQQAHSNRKLLDIA-NH2 | 0.09 |
| H-SQEPPISLDLTFHLLREVLEATKADQLAQQAHSNRKLLDIA-NH2 | 0.4 |
| H-SQEPPISLDLTFHLLREVLEMAKADQLAQQAHSNRKLLDIA-NH2 | 3.4 |
| H-SQEPPISLDLTFHLLREVLEMTAADQLAQQAHSNRKLLDIA-NH2 | 0.28 |
| H-SQEPPISLDLTFHLLREVLEMTKAAQLAQQAHSNRKLLDIA-NH2 | 1.7 |
| H-SQEPPISLDLTFHLLREVLEMTKADALAQQAHSNRKLLDIA-NH2 | 1.1 |
| H-SQEPPISLDLTFHLLREVLEMTKADQLAQAAHSNRKLLDIA-NH2 | 0.8 |
| H-SQEPPISLDLTFHLLREVLEMTKADQLAQQAASNRKLLDIA-NH2 | 4.5 |
| H-SQEPPISLDLTFHLLREVLEMTKADQLAQQAHANRKLLDIA-NH2 | 2 |
| H-SQEPPISLDLTFHLLREVLEMTKADQLAQQAHSARKLLDIA-NH2 | 1.1 |
| H-SQEPPISLDLTFHLLREVLEMTKADQLAQQAHSNAKLLDIA-NH2 | 0.02 |
| H-SQEPPISLDLTFHLLREVLEMTKADQLAQQAHSNRALLDIA-NH2 | 0.8 |
| H-SQEPPISLDLTFHLLREVLEMTKADQLAQQAHSNRKALDIA-NH2 | 0.7 |
| H-SQEPPISLDLTFHLLREVLEMTKADQLAQQAHSNRKLLAIA-NH2 | 1.8 |
| H-SQEPPISLDLTFHLLREVLEMTKADQLAQQAHSNRKLLDAA-NH2 | 1.7 |
